Results as given in patent US12180187B2, “1-phenyl-5-azinylpyrazolyl-3-oxyalkyl acids and their use for controlling unwanted plant growth” (BAYER AKTIENGESELLSCHAFT, priority 2019, dated 2024).

Legend:
DIGSA = assay: Pre-emergence action at 320 g/ha against DIGSA; assay type: in vivo, Digitaria sanguinalis; conditions: visual scoring after about 3 weeks vs untreated controls
Summary of the method: (§1)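 Weed and crop seeds sown in pots and covered with soil; WP or EC formulations sprayed pre-emergence onto the soil surface at 320 g/ha with 0.5% additive in 600 l/ha water. Kept in greenhouse; after about 3 weeks activity scored visually as % versus untreated controls (100% = plants dead, 0% = as control).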

POAAN [1] = assay: Pre-emergence action against POAAN, 1280 g/ha; assay type: in vivo, Poa annua; conditions: visual scoring after about 3 weeks vs untreated controls, 100% = plants have died, 0% = like control plants
Summary of the method: (§2)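 Compound applied as WP or EC in aqueous spray (0.5% additive, 600 L/ha) to the surface of sandy loam covering freshly sown seeds. After about 3 weeks under good greenhouse conditions, damage is given as visual percentage, 100% meaning plant death.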

POLCO = assay: Pre-emergence action at 320 g/ha against POLCO; assay type: in vivo, Fallopia convolvulus (Polygonum convolvulus); conditions: visual scoring after about 3 weeks vs untreated controls
Summary of the method: as §1

AMARE [2] = assay: Pre-emergence action at 320 g/ha against AMARE; assay type: in vivo, Amaranthus retroflexus; conditions: visual scoring after about 3 weeks vs untreated controls
Summary of the method: as §1

ALOMY = assay: Pre-emergence action at 320 g/ha against ALOMY; assay type: in vivo, Alopecurus myosuroides; conditions: scored visually after about 3 weeks vs untreated controls (100% = plants have died)
Summary of the method: as §1

STEME = assay: Pre-emergence action against STEME, 1280 g/ha; assay type: in vivo, Stellaria media; conditions: scored visually after about 3 weeks vs untreated controls (100% = plants have died)
Summary of the method: as §2

AMARE [3] = assay: Pre-emergence action against AMARE, 1280 g/ha; assay type: in vivo, Amaranthus retroflexus; conditions: scored visually after about 3 weeks vs untreated controls (100% = plants have died)
Summary of the method: as §2

POAAN [4] = assay: Post-emergence action against POAAN, 1.28 kg/ha; assay type: in vivo, Poa annua; conditions: dosage 1280 g/ha, visual rating about 3 weeks after treatment vs untreated controls
Summary of the method: (§3)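 Weeds grown in sandy loam in a greenhouse were sprayed at the one-leaf stage, 2–3 weeks after sowing, with WP or EC formulations in water containing 0.5% additive at 600 L/ha. About 3 weeks later, damage was scored visually versus untreated controls (0% = like control, 100% = dead).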

AVEFA = assay: Pre-emergence action at 320 g/ha against AVEFA; assay type: in vivo; conditions: visual scoring after about 3 weeks vs untreated controls
Summary of the method: as §1

ECHCG [5] = assay: Post-emergence action against ECHCG, 1.28 kg/ha; assay type: in vivo, Echinochloa crus-galli; conditions: dosage 1280 g/ha, visual rating about 3 weeks after treatment vs untreated controls
Summary of the method: as §3

SETVI [6] = assay: Pre-emergence action at 320 g/ha against SETVI; assay type: in vivo, Setaria viridis; conditions: visual scoring after about 3 weeks vs untreated controls
Summary of the method: as §1

ECHCG [7] = assay: Pre-emergence action against ECHCG, 1280 g/ha; assay type: in vivo, Echinochloa crus-galli; conditions: visual scoring after about 3 weeks vs untreated controls, 100% = plants have died, 0% = like control plants
Summary of the method: as §2

MATIN = assay: Pre-emergence action against MATIN, 1280 g/ha; assay type: in vivo, Tripleurospermum inodorum (Matricaria inodora); conditions: scored visually after about 3 weeks vs untreated controls (100% = plants have died)
Summary of the method: as §2

SETVI [8] = assay: Pre-emergence action against SETVI, 1280 g/ha; assay type: in vivo, Setaria viridis; conditions: visual scoring after about 3 weeks vs untreated controls, 100% = plants have died, 0% = like control plants
Summary of the method: as §2

Compound	Pre-emergence action against DIGSA in % (DIGSA) [%]	Pre-emergence action against POAAN (POAAN [1]) [%]	Pre-emergence action against POLCO in % (POLCO) [%]	Pre-emergence action against AMARE in % (AMARE [2]) [%]	Pre-emergence action at 320 g/ha against ALOMY in % (ALOMY) [%]	Pre-emergence action against STEME (STEME) [%]	Pre-emergence action against AMARE (AMARE [3]) [%]	Post-emergence action against POAAN (POAAN [4]) [%]	Pre-emergence action against AVEFA in % (AVEFA) [%]	Post-emergence action against ECHCG (ECHCG [5]) [%]	Pre-emergence action against SETVI in % (SETVI [6]) [%]	Pre-emergence action against ECHCG (ECHCG [7]) [%]	Pre-emergence action against MATIN (MATIN) [%]	Pre-emergence action against SETVI (SETVI [8]) [%]
COCCOC(=O)COc1nn(-c2ccccc2F)c(-c2ccc(F)nc2)c1Br [VII-052]	100	100	100	100	100	100	100	100	90	100	100	100	100	100
CCOC(=O)C(C)Oc1nn(-c2ccccc2F)c(-c2ccc(F)nc2)c1I (stereo not drawn) [VII-057]	100	100	90	100	100	100	100	100	90	100	90	100	100	100
COC(=O)[C@@H](C)Oc1nn(-c2cc(F)ccc2F)c(-c2ccc(F)nc2)c1Br [VII-062]	100	100	100	100	100	100	100	100	100	100	100	100	100	100
CCOC(=O)C(C)Oc1nn(-c2ccccc2F)c(-c2ccc(F)nc2)c1C(F)(F)F (stereo not drawn) [VII-066]	100	100	90	100	100	100	100	100	90	100	80	100	90	100
COC(=O)COc1nn(-c2cc(F)ccc2F)c(-c2ccc(F)nc2)c1Br [VII-089]	100	100	100	100	100	90	100	100	90	90	100	100	100	100
O=C(COc1nn(-c2ccccc2F)c(-c2ccc(F)nc2)c1Br)OCC1CCOC1 (stereo not drawn) [VII-091]	100	100	100	100	100	100	100	100	90	100	100	100	100	100
O=C(COc1nn(-c2ccccc2F)c(-c2ccc(F)nc2)c1Br)OCC1OCCO1 [VII-103]	100	100	100	100	100	100	100	100	90	100	100	100	100	100
COC(=O)[C@H](C)Oc1nn(-c2cc(F)ccc2F)c(-c2ccc(F)nc2)c1Br [VII-107]	100	100	100	100	80	100	100	100	90	100	100	90	90	100
COC(=O)CCOC(=O)COc1nn(-c2ccccc2F)c(-c2ccc(F)nc2)c1Br [VII-111]	100	100	90	100	100	100	100	100	90	100	100	100	100	100
CCOC(=O)COc1nn(-c2ccccc2F)c(-c2ccc(F)nc2)c1C [VII-117]	100	100	100	100	100	90	100	100	100	100	100	100	100	100
COC(=O)[C@@H](C)Oc1nn(-c2cc(F)ccc2F)c(-c2cncc(F)c2)c1Br [VII-132]	100	100	100	100	100	100	100	100	100	100	100	100	100	100
COC(=O)[C@@H](C)Oc1nn(-c2cc(F)ccc2F)c(-c2cncc(F)c2)c1C#N [VII-147]	100	100	100	100	100	100	100	100	100	100	100	100	100	100
